From US20080200473A1, “Imidazo [1,2-a]Pyridine Compounds, Compositions, Uses and Methods Thereto” (Ferrer Internacional, S.A., priority 2004, published 2008)

What was measured:
α1-GABAA receptor = experiment: Ligand-binding assay, competitive with radiolabeled flumazenil, cerebellum membranes; settings: Affinity for α1-GABAA receptor, rat cerebellum membranes, radiolabeled flumazenil 1 nM; for % Inhibition 10^−5M: 10^-5M test compound; for % Inhibition 10^−7M: 10^-7M test compound
Method: (§1) Ligand-binding assays. Determination of the affinity of test compounds for α1- and α2-GABAA receptor.
(§2) Male Sprague-Dawley rats weighing 200-250 g at the time of experiment were used. After decapitation of the animal, the cerebellum (tissue that mostly contains α1-GABAA receptor) and spinal cord (tissue that mostly contains α2-GABAA receptor) were removed. The membranes were prepared according to the method by J. Lameh et al. (Prog. Neuro-Psychopharmacol. Biol. Psychiatry, 24, 979-991, 2000) and H. Noguchi et al. (Eur. J. Pharm., 434, 21-28, 2002). Once the tissues weighed, they were suspended in 50 mM Tris.HCl (pH 7.4), 1:40 (w/v), or sucrose 0.32 M in the case of spinal cord, homogenized and then centrifuged at 20,000 g for 10 min at 7° C. twice. The resulting pellet was resuspended under the same conditions and centrifuged again. The pellet was finally resuspended on a minimum volume and kept at −80° C. overnight. On the next day, the process was repeated until the final pellet was resuspended at a ratio of 1:10 (w/v) in the case of cerebellum and at a ratio of 1:5 (w/v) in the case of spinal cord.
(§3) Affinity was determined by competitive tests using radiolabeled flumazenil as ligand. The tests were performed according to the methods described by S. Arbilla et al. (Eur. J. Pharmacol., 130, 257-263, 1986); and Y. Wu et al. (Eur. J. Pharmacol., 278, 125-132, 1995) using 96-well microtiter plates. The membranes containing the study receptors, flumazenil (radiolabeling at a final concentration of 1 nM) and ascending concentrations of test compounds (in a total volume of 230 μL in 50 mM [ph 7.4] Tris.HCl buffer) were incubated. Simultaneously, the membranes were only incubated with the radiolabeled flumazenil (total binding, 100%) and in the presence of an elevated concentration of unradiolabeled flumazenil (non-specific binding, % estimation of radiolabeled ligand). The reactions started on adding the radiolabeled ligand followed by incubation for 60 minutes at 4° C. At the end of the incubation period, 200 μL of reaction were transferred to a multiscreen plate (Millipore) and filtered using a vacuum manifold and then washed three times with cold test buffer. The multiscreen plates were equipped with a GF/B filter that retained the membranes containing the receptors and the radiolabeled ligand which has been bound to the receptors. After washing, the plates were left till dry. Once dried, scintillation liquid was added and left under stirring overnight. The next day the plates were counted using a Perkin-Elmer Microbeta scintillation counter.
(§4) For analysis of the results the percentage of specific binding for every concentration of test compound was calculated as follows:
(§5) % specific binding=(X−N/T−N)×100
(§6) where, X: amount of bound ligand for every concentration of compound. T: total binding, maximum amount bound to the radiolabeled ligand. N: non-specific binding, amount of radiolabeled ligand bound in a non-specific way irrespective of the receptor used.
(§7) Every concentrations of compound were tested in triplicate and their mean values were used to determine the experimental values of % specific binding versus the concentration of compound. Affinity data are expressed as % inhibition at 10^-5M and 10^-7M concentrations.

α2-GABAA receptor = experiment: Ligand-binding assay, competitive with radiolabeled flumazenil, spinal cord membranes; settings: Affinity for α2-GABAA receptor, rat spinal cord membranes, radiolabeled flumazenil 1 nM; for % Inhibition 10^−5M: 10^-5M test compound; for % Inhibition 10^−7M: 10^-7M test compound
Method: as §1, §2, §3, §4, §5, §6, §7

mice = experiment: In vivo predictive sedation-hypnosis test (inhibition of traveled distance); parameters: species or system mouse; settings: male CD1 mice; single equimolecular intraperitoneal doses; traveled distance over 30 min after dosing (first 5 min discarded) versus control
Method: In vivo determination of predictive sedative-hypnotic action.
The in vivo effects of these compounds were assessed by a predictive sedation-hypnosis test in mice (D. J. Sanger et al., Eur. J. Pharmacol., 313, 35-42, 1996; and G. Griebel et al., Psychopharmacology, 146, 205-213, 1999).
Groups of 5-8 male CD1 mice, weighing 22-26 g at the time of test, were used. The test compounds were administered in single equimolecular intraperitoneal doses, suspended in 0.25% agar with one drop of Tween in a volume of 10 mL/kg. Control animals received the vehicle alone. Using a Smart System (Panlab, S. L., Spain) the traveled distance in cm is recorded for each mouse at 5-min intervals during a period of 30 minutes after dosing. The inhibition percentage of traveled distance of treated animals versus control animals (the first 5 min were discarded) was calculated.

Cc1ccc(-c2nc3ccc(C)cn3c2CNC(=O)c2ccc(N(C)C)cc2)cc1 [Example 3, 4-Dimethylamino-N-(6-methyl-2-p-tolyl-imidazo[1,2-a]pyridin-3-ylmethyl)-benzamide]
% Inhibition 10^−5M (α1-GABAA receptor): 73.9% | % Inhibition 10^−7M (α1-GABAA receptor): 21.4% | % Inhibition 10^−5M (α2-GABAA receptor): 17.4% | % Inhibition 10^−7M (α2-GABAA receptor): 0.0% | % Inhibition Motor Activity (mice): 45.59%

Cc1ccc(-c2nc3ccc(C)cn3c2CN(C)C(=O)c2cnoc2C)cc1 [Example 99, 5-Methyl-isoxazole-4-carboxylic acid methyl-(6-methyl-2-p-tolyl-imidazo[1,2-a]pyridin-3-ylmethyl)-amide]
% Inhibition 10^−5M (α1-GABAA receptor): 99.2% | % Inhibition 10^−7M (α1-GABAA receptor): 52.5% | % Inhibition Motor Activity (mice): 13.33%

Cc1ccc(-c2nc3ccc(C)cn3c2CNC(=O)c2ccc([N+](=O)[O-])o2)cc1 [Example 14, 5-Nitro-furan-2-carboxylic acid (6-methyl-2-p-tolyl-imidazo[1,2-a]pyridin-3-ylmethyl)-amide]
% Inhibition 10^−5M (α1-GABAA receptor): 99.4% | % Inhibition 10^−7M (α1-GABAA receptor): 51.4% | % Inhibition 10^−5M (α2-GABAA receptor): 92.2% | % Inhibition 10^−7M (α2-GABAA receptor): 26.2% | % Inhibition Motor Activity (mice): 89.82%

Cc1ccc(-c2nc3ccc(C)cn3c2CN(C)C(=O)c2ccc([N+](=O)[O-])cc2)cc1 [Example 31, N-Methyl-N-(6-methyl-2-p-tolyl-imidazo[1,2-a]pyridin-3-ylmethyl)-4-nitro-benzamide]
% Inhibition 10^−5M (α1-GABAA receptor): 82.5% | % Inhibition 10^−7M (α1-GABAA receptor): 1.2% | % Inhibition 10^−5M (α2-GABAA receptor): 38.8% | % Inhibition 10^−7M (α2-GABAA receptor): 0.0% | % Inhibition Motor Activity (mice): 69.67%

Cc1ccc(-c2nc3ccc(C)cn3c2CNC(=O)c2ccccn2)cc1 [Example 5, Pyridine-2-carboxylic acid (6-methyl-2-p-tolyl-imidazo[1,2-a]pyridin-3-ylmethyl)-amide]
% Inhibition 10^−5M (α1-GABAA receptor): 99.8% | % Inhibition 10^−7M (α1-GABAA receptor): 75.5% | % Inhibition 10^−5M (α2-GABAA receptor): 95.3% | % Inhibition 10^−7M (α2-GABAA receptor): 28.4% | % Inhibition Motor Activity (mice): 90.40%

Cc1ccc(-c2nc3ccc(C)cn3c2CNC(=O)c2csc(C)n2)cc1 [Example 69, 2-Methyl-thiazole-4-carboxylic acid (6-methyl-2-p-tolyl-imidazo[1,2-a]pyridin-3-ylmethyl)-amide]
% Inhibition 10^−5M (α1-GABAA receptor): 100.4% | % Inhibition 10^−7M (α1-GABAA receptor): 93.4% | % Inhibition 10^−5M (α2-GABAA receptor): 98.8% | % Inhibition 10^−7M (α2-GABAA receptor): 74.1% | % Inhibition Motor Activity (mice): 78.41%

Cc1ccc(C(=O)N(C)Cc2c(-c3ccc(C)cc3)nc3ccc(C)cn23)cc1 [Example 30, 4,N-Dimethyl-N-(6-methyl-2-p-tolyl-imidazo[1,2-a]pyridin-3-ylmethyl)-benzamide]
% Inhibition 10^−5M (α1-GABAA receptor): 90.5% | % Inhibition 10^−7M (α1-GABAA receptor): 4.6% | % Inhibition 10^−5M (α2-GABAA receptor): 33.9% | % Inhibition 10^−7M (α2-GABAA receptor): 0.0% | % Inhibition Motor Activity (mice): 44.36%

Cc1ccc(-c2nc3ccc(C)cn3c2CNC(=O)c2cscn2)cc1 [Example 81, Thiazole-4-carboxylic acid (6-methyl-2-p-tolyl-imidazo[1,2-a]pyridin-3-ylmethyl)-amide]
% Inhibition 10^−5M (α1-GABAA receptor): 99.6% | % Inhibition 10^−7M (α1-GABAA receptor): 69.9% | % Inhibition 10^−5M (α2-GABAA receptor): 94.3% | % Inhibition 10^−7M (α2-GABAA receptor): 1.5% | % Inhibition Motor Activity (mice): 84.31%

Cc1ccc(-c2nc3ccc(C)cn3c2CNC(=O)c2nc(C)oc2C)cc1 [Example 83, 2,5-Dimethyl-oxazole-4-carboxylic acid (6-methyl-2-p-tolyl-imidazo[1,2-a]pyridin-3-ylmethyl)-amide]
% Inhibition 10^−5M (α1-GABAA receptor): 100.0% | % Inhibition 10^−7M (α1-GABAA receptor): 93.6% | % Inhibition 10^−5M (α2-GABAA receptor): 93.2% | % Inhibition 10^−7M (α2-GABAA receptor): 71.1% | % Inhibition Motor Activity (mice): 93.22%

Cc1ccc(-c2nc3ccc(C)cn3c2CN(C)C(=O)C2CC2)cc1 [Example 24, Cyclopropanecarboxylic acid methyl-(6-methyl-2-p-tolyl-imidazo[1,2-a]pyridin-3-ylmethyl)-amide]
% Inhibition 10^−5M (α1-GABAA receptor): 99.8% | % Inhibition 10^−7M (α1-GABAA receptor): 75.2% | % Inhibition 10^−5M (α2-GABAA receptor): 14.4% | % Inhibition 10^−7M (α2-GABAA receptor): 0.0% | % Inhibition Motor Activity (mice): 80.71%

Cc1ccc(-c2nc3ccc(C)cn3c2CNC(=O)c2csnn2)cc1 [Example 70, [1,2,3]Thiadiazole-4-carboxylic acid (6-methyl-2-p-tolyl-imidazo[1,2-a]pyridin-3-ylmethyl)-amide]
% Inhibition 10^−5M (α1-GABAA receptor): 100.4% | % Inhibition 10^−7M (α1-GABAA receptor): 79.7% | % Inhibition 10^−5M (α2-GABAA receptor): 97.7% | % Inhibition 10^−7M (α2-GABAA receptor): 25.6% | % Inhibition Motor Activity (mice): 90.77%

Cc1ccc(-c2nc3ccc(C)cn3c2CN(C)C(=O)c2ccc3ccccc3n2)cc1 [Example 35, Quinoline-2-carboxylic acid methyl-(6-methyl-2-p-tolyl-imidazo[1,2-a]pyridin-3-ylmethyl)-amide]
% Inhibition 10^−5M (α1-GABAA receptor): 67.1% | % Inhibition 10^−7M (α1-GABAA receptor): 31.8% | % Inhibition 10^−5M (α2-GABAA receptor): 3.7% | % Inhibition 10^−7M (α2-GABAA receptor): 0.0% | % Inhibition Motor Activity (mice): 33.19%

COc1ccc(C(=O)N(C)Cc2c(-c3ccc(C)cc3)nc3ccc(C)cn23)cc1 [Example 25, 4-Methoxy-N-methyl-N-(6-methyl-2-p-tolyl-imidazo[1,2-a]pyridin-3-ylmethyl)-benzamide]
% Inhibition 10^−5M (α1-GABAA receptor): 91.9% | % Inhibition 10^−7M (α1-GABAA receptor): 26.6% | % Inhibition 10^−5M (α2-GABAA receptor): 0.0% | % Inhibition 10^−7M (α2-GABAA receptor): 0.0% | % Inhibition Motor Activity (mice): 67.34%

Cc1ccc(-c2nc3ccc(C)cn3c2CN(C)C(=O)c2cnccn2)cc1 [Example 96, Pyrazine-2-carboxylic acid methyl-(6-methyl-2-p-tolyl-imidazo[1,2-a]pyridin-3-ylmethyl)-amide]
% Inhibition 10^−5M (α1-GABAA receptor): 99.9% | % Inhibition 10^−7M (α1-GABAA receptor): 80.5% | % Inhibition Motor Activity (mice): 44.04%

Cc1ccc(-c2nc3ccc(C)cn3c2CNC(=O)c2csc([N+](=O)[O-])c2)cc1 [Example 88, 5-Nitro-thiophene-3-carboxylic acid (6-methyl-2-p-tolyl-imidazo[1,2-a]pyridin-3-ylmethyl)-amide]
% Inhibition 10^−5M (α1-GABAA receptor): 96.2% | % Inhibition 10^−7M (α1-GABAA receptor): 0.0% | % Inhibition Motor Activity (mice): 51.87%

Cc1ccc(-c2nc3ccc(C)cn3c2CNC(=O)c2cc(F)c(Cl)cc2Cl)cc1 [Example 87, 2,4-Dichloro-5-fluoro-N-(6-methyl-2-p-tolyl-imidazo[1,2-a]pyridin-3-ylmethyl)-benzamide]
% Inhibition Motor Activity (mice): 48.13%

Cc1ccc(-c2nc3ccc(C)cn3c2CNC(=O)/C=C/c2ccco2)cc1 [Example 80, 3-Furan-2-yl-N-(6-methyl-2-p-tolyl-imidazo[1,2-a]pyridin-3-ylmethyl)-acrylamide]
% Inhibition 10^−5M (α1-GABAA receptor): 88.9% | % Inhibition 10^−7M (α1-GABAA receptor): 0.0% | % Inhibition Motor Activity (mice): 61.89%

Cc1ccc(-c2nc3ccc(C)cn3c2CNC(=O)c2ccsc2)cc1 [Example 82, Thiophene-3-carboxylic acid (6-methyl-2-p-tolyl-imidazo[1,2-a]pyridin-3-ylmethyl)-amide]
% Inhibition 10^−5M (α1-GABAA receptor): 98.7% | % Inhibition 10^−7M (α1-GABAA receptor): 33.0% | % Inhibition Motor Activity (mice): 61.93%

Cc1ccc(-c2nc3ccc(C)cn3c2CNC(=O)c2cc(C)n(C3CC3)c2C)cc1 [Example 84, 1-Cyclopropyl-2,5-dimethyl-1H-pyrrole-3-carboxylic acid (6-methyl-2-p-tolyl-imidazo[1,2-a]pyridin-3-ylmethyl)-amide]
% Inhibition Motor Activity (mice): 36.32%
